Source: patent US20240180890A1, “VACCINE ADJUVANT” (Celleron Therapeutics Limited, priority 2021, published 2024)

Assays:
[1] = test system: peptide-specific CD8 T cells; assay: Immunogenicity experiment with CXD101 and peptide vaccine; assay type: in vivo, C57BL/6 mice
Method: C57BL/6 mice were treated with orally administrated CXD101 at 10 mg/kg for 14 days (5 days on/2 days off) and intravenous D8V and 18V peptides vaccination (days 1 and 7) with respect to vehicle only control; n=5 per group; • B) 18V-peptide specific CD8 positive T cells with tetramers (i) and general T cell activation (CD8+ CD44+ CD62L− tetramer positive T cells) measurements by flow cytometry; n=5; • C) Representative examples of immunohistochemical staining of H3AcK9 in lungs (i) collected from C57BL/6 mice at 14 days treated with 25 mg/kg CXD101 and non-treated control. Original magnification: 20×, scale bar, 50 μm; and 63×; scale bar, 16 μm. n=3; (ii) results were quantified by ImageJ Fiji software and normalised optical density was presented as a mean+/−SD. […]
Twenty C57BL/6 female mice (5 mice per group: control; CXD101 treated; peptide vaccinated; CXD101/peptide vaccinated) where 10 mice were vaccinated intravenously with 30 μg of peptides encoding CD8 T cell epitopes from the beta-galactosidase gene, βgale96-103 (DAPIYTNV; D8V), the βgal497-504 (ICPMYARV; 18V) (Genscript) with 30 μg polylC (InVivogen) and 25 μg anti-CD40 (2bScientific). […] Mice were bled at day 6 and 13 post prime and the levels of peptide-specific CD8 T cells measured by detection with tetramers followed by flow cytometry.

HDAC Class II = HDAC Class II inhibition; assay type: biochemical; settings: no activity against HDAC Class II
physchem = settings: 25 °C, aqueous buffer

Cc1nn(C)cc1CN1CCC(c2ccc(C(=O)Nc3ccccc3N)cc2)CC1 [CXD101/zabinostat, N-(2-aminophenyl)-4-(1-[(1,3-dimethyl-1H-pyrazol-4-yl)methyl]piperidin-4yl)benzamide]
immunogenicity against a peptide-based vaccine ([1]; C57BL/6 mice, oral CXD101, intravenous D8V and 18V peptides vaccination, tetramers and flow cytometry (FIG. 7)): induces immunogenicity against a peptide-based vaccine | immune response to an immunogenic protein ([1]; normal healthy cells and animals): potentiates the immune response | IC50 (HDAC Class II): ≥ 2.5 µM | solubility (physchem): ≥ 500 µg/mL
